Here are results for 1 substance from US20040009170A1, “Alpha-melanocyte stimulating hormone peptides protection in organ transplantation” (priority 2002, published 2004).

Data set [1] deals with donor cardiac grafts (Brown Norway) transplanted into recipient (Lewis) rats. Nature of the data set: Heterotopic heart transplantation in rats: allograft survival. In kind it is in vivo, rat. The source says: Adult inbred Brown Norway (donor) and Lewis (recipient) male rats, weighing 200-300 g were used in this study (Charles River, Calco, Italy). Animals were maintained at the animal care facilities of the Department of Hepatology, Ospedale Maggiore di Milano, Italy, under standard temperature, humidity, and time-regulated light conditions. Water and food were provided ad libitum. All animals received care in compliance with the Principles of Laboratory Animal Care, formulated by the National Society of Medical Research, and the Guide for the Care and Use of Laboratory Animals, prepared by the National Academy of Sciences and published by the National Institutes of Health (NIH Publication No. 8623, revised 1985).
Before transplantation, animals were anesthetized with an intraperitoneal injection of 125-mg/kg ketamine. During anesthesia, heart rate, ventilation rate, and temperature were closely monitored. Donor cardiac grafts (Brown Norway) were transplanted into the abdominal cavity of the recipient (Lewis) rats using the technique described by Ono and Lindsey. […] Graft function was monitored by palpation through the abdominal wall twice daily. […]
Statistical analysis was performed using SigmaStat statistical software (Jandel Scientific GmbH, Germany). Values are expressed as mean±SEM. […] Difference in median graft survival time was evaluated using the Mann-Whitney Rank Sum Test. […]

The test system of data set [2] is heart grafts (Brown Norway into Lewis rats). Nature of the data set: Histopathological evaluation and ED1 immunohistochemistry of heart grafts. In kind it is in vivo, rat. Here is the method: Experiments were performed to determine whether NDP-α-MSH treatment prolongs allograft survival. For this purpose, NDP-α-MSH or saline was administered from the time of transplantation until spontaneous rejection. In such experiments (n=7), rats were sacrificed when there was loss of palpable contractile activity of the graft. Studies were performed focusing on the influence of NDP-α-MSH on graft histopathology and transcripts involved in inflammation and rejection. For these studies, rats (n=6) were sacrificed 1 or 4 days after transplantation. NDP-α-MSH or saline was administered from day 0 until the sacrifice.
Heart grafts, removed from rats on day 1, 4, or at the time of rejection, were sectioned coronally. Two sections were snap-frozen in liquid nitrogen and stored at −80° C. for RNA extraction and RT-PCR assays. One section was fixed in 10% buffered formalin and paraffin-embedded for light microscopy examination.
Histopathological evaluation was then performed. Three μm coronal sections of heart grafts were stained with hematoxylin and eosin. Histopathological lesions were scored by two blinded observers using a 5-point scale according to combined assessments of edema (absent, perivascular/mild interstitial, subendocardial, diffuse interstitial, massive); inflammatory cell infiltration (absent, perivascular, subendocardial, diffuse interstitial, massive), and myocytolysis (absent, focal, massive): 0=minimum damage, 1+=mild damage, 2+=moderate damage, 3+=severe damage, and 4+=maximum damage.
Analysis of graft infiltrating monocytes/macrophages was performed through immunohistochemical detection of ED1-positive cells. Sections were stained using the peroxidase-antiperoxidase (PAP) technique, after incubation with mouse anti-rat ED 1 or control antibody (Santa Cruz Biotech, Santa Cruz, Calif., USA). Slides were counterstained with hematoxylin and eosin.
Statistical analysis was performed using SigmaStat statistical software (Jandel Scientific GmbH, Germany). Values are expressed as mean±SEM. Unpaired Student's t test was used to compare differences between values in histological scores. Difference in median graft survival time was evaluated using the Mann-Whitney Rank Sum Test. A probability value<0.05 was considered statistically significant.

Data set [3] in a line: Plasma nitrite (NO2-) determination after heart transplantation (Griess). In kind it is in vivo, rat. As to conditions: all intervals (day 1, day 4, rejection). The protocol: Plasma was separated by centrifugation, aliquoted, and stored at −80° C.
Nitric oxide determinations were performed. Specifically, plasma nitrite concentration was determined at times of sacrifice as a measure of nitric oxide release. Nitrates (NO3^−) were converted into nitrites (NO2^−) by treatment of serum with nitrate reductase (Boehringer Mannheim Italia SpA, Milan, Italy). After enzymatic reduction, samples were mixed with equal amounts of Griess reagent (sulfanilamide 1%, napthlethylenediamide 0.1% in phosphoric acid 0.25%). Samples were incubated at room temperature for 10 min and absorbency was measured at 540 nm using a microplate automatic reader.
(In general: The Griess reaction detects nitrite, a stable product of nitric oxide.)

The conditions of data set [4]: depending upon the assay employed; cited from earlier work.
The next data set concerns proteolytic enzymes. Particulars: cited from earlier work.
[5] abbreviates: 4 days after transplantation, vs untreated.
Setting [6] is: day 1 after transplantation, vs untreated.

With Nle^4DPhe^7-α-MSH [NDP-α-MSH], the Median graft survival in data set [1] (100 μg i.p. every 12 h from 1 h before transplantation until rejection, no immunosuppression, untreated 6 days, p<0.001) was found to be 10 days. The “Graft survival time, range” value in data set [1] (100 μg i.p. every 12 h until rejection, untreated range 6-8) lay in the range of 9 to 11 days. In addition, in data set [2] (setting [5]), the “ED1-positive cells infiltrating the graft” value is “fewer and dispersed”; the Inflammation and edema result was “milder and mostly restricted to the subendocardial region”. Besides, in data set [2] (4 days after transplantation, untreated 10.8±0.80, p<0.01), the “Histopathological score of heart grafts” value turned out to be 7.0±0.64. Besides, in data set [2] (at time of rejection), the “Histology of rejected hearts, treated vs untreated” value was “no significant differences”. In addition, in data set [2] (setting [6]), the Inflammatory cell infiltration entry was “much less”; the Intragraft edema result is “milder and generally restricted to the perivascular spaces”. Further, the “Histopathological score of heart grafts” value in data set [2] (day 1 after transplantation, mean±SEM, untreated 8.7±0.25, p<0.001) was found to be 3.0±0.90. Further, the “Increases in plasma NO2- concentration vs untreated” value in data set [3] is reported as “significantly lower”. The “Activity relative to the natural molecule” value in data set [4] is on record as 10- to 1000 times. In addition, in the data set with proteolytic enzymes, the “Inactivation by proteolytic enzymes” value is recorded as “resistant”.
